Measured values: ChEMBL document CHEMBL2177034, “Inhibition of hypoxia inducible factor-2 transcription: isolation of active modulators from marine sponges” (J Nat Prod, 2012)
Active and inactive are the calls of the source. The rule behind the calls is not given here.

Experiments:
[1] = Downregulation of HIF1alpha mRNA expression in human RCC4 cells at 21 uM after 48 hrs by RT-PCR analysis; format: functional, cell-based
786-0 [2] = assay: Downregulation of carbonic anhydrase 9 expression in human 786-0 cells at 21 uM after 48 hrs by RT-PCR analysis; format: functional, cell-based
786-0 [3] = assay: Inhibition of HIF-mediated VEGFA protein expression in serum deprived human 786-0 cells at 21 uM after 48 hrs relative to control; format: cell-based
[4] = molecular target: T1, Endothelial PAS domain-containing protein 1 (Homo sapiens, UniProt Q99814); assay: Inhibition of HIF2alpha in human 786-0 cells assessed as reduction in TGFalpha mRNA expression at 21 uM after 48 hrs by RT-PCR analysis; format: cell-based
T1 sequence (Q99814 whole entry, the tested form may be a part): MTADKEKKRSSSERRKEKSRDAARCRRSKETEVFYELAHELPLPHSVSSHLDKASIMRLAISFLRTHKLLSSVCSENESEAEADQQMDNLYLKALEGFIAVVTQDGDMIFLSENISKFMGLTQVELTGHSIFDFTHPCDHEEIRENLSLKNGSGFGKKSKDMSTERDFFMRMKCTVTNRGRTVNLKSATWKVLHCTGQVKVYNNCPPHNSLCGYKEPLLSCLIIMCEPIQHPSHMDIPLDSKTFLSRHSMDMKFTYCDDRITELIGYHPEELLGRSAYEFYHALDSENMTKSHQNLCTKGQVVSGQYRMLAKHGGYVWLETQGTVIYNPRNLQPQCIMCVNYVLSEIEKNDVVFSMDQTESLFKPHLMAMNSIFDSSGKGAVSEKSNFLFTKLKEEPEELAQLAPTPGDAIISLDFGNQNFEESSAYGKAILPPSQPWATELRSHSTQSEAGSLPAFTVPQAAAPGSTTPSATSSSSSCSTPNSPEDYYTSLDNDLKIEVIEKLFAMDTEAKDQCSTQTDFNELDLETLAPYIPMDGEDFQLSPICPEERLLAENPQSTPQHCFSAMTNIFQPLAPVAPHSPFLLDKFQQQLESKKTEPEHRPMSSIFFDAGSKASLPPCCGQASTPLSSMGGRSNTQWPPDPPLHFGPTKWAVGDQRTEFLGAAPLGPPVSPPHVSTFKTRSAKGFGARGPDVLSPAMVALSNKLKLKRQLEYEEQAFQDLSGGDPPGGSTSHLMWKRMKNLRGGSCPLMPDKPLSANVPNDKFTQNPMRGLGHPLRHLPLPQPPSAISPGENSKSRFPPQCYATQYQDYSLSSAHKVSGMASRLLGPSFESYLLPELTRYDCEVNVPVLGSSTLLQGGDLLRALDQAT

786-0 [5] = assay: Downregulation of HIF2alpha mRNA expression in human 786-0 cells at 21 uM after 48 hrs by RT-PCR analysis; format: functional, cell-based
786-0 [6] = assay: Cytotoxicity against human 786-0 cells expressing HIF2alpha after 2 days by XTT assay; format: functional, cell-based; conditions: 786-0, 48 h
786-0 [7] = assay: Downregulation of HIF1alpha mRNA expression in human 786-0 cells at 21 uM after 48 hrs by RT-PCR analysis; format: functional, cell-based
[8] = Downregulation of CCND1 mRNA expression in human SK-RC-28 cells at 21 uM after 48 hrs by RT-PCR analysis; format: functional, cell-based
[9] = Downregulation of HIF2alpha mRNA expression in human RCC4 cells at 21 uM after 48 hrs by RT-PCR analysis; format: functional, cell-based
[10] = Downregulation of HIF2alpha mRNA expression in human SK-RC-28 cells at 21 uM after 48 hrs by RT-PCR analysis; format: functional, cell-based
[11] = molecular target: Hypoxia-inducible factor 1-alpha (Homo sapiens) (UniProt Q16665); assay: Inhibition of HIF1alpha in human RCC4 cells coexpressing HIF2alpha assessed as decrease in carbonic anhydrase 9 mRNA expression at 21 uM after 48 hrs by RT-PCR analysis; format: cell-based
Hypoxia-inducible factor 1-alpha (Homo sapiens), sequence (Q16665 whole entry, looked up, the tested form may be a part): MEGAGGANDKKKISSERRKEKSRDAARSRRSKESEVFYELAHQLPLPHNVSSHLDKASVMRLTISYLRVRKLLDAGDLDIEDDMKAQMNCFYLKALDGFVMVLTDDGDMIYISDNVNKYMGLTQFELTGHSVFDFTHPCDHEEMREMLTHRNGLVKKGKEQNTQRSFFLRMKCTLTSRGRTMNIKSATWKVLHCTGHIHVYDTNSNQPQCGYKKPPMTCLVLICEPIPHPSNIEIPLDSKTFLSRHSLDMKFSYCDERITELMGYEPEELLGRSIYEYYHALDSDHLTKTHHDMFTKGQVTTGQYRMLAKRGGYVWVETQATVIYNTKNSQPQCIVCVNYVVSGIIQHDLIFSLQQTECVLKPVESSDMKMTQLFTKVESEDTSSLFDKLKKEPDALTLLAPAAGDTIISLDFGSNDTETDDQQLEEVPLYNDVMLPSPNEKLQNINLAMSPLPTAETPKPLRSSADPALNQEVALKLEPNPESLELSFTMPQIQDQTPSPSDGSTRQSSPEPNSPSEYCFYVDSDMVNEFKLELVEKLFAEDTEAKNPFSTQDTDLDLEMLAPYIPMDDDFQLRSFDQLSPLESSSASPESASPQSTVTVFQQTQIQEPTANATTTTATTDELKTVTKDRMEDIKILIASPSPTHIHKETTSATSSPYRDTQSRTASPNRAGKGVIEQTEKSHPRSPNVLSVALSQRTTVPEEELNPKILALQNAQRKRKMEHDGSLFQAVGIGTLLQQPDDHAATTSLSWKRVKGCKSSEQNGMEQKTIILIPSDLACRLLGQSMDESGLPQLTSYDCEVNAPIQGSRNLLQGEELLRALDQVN

[12] = molecular target: T1, Endothelial PAS domain-containing protein 1; assay: Inhibition of HIF2alpha in human RCC4 cells coexpressing HIF1alpha assessed as reduction in GLUT1 mRNA expression at 21 uM after 48 hrs by RT-PCR analysis; format: cell-based
786-0 [13] = assay: Downregulation of actin mRNA expression in human […] at 21 uM after 48 hrs by RT-PCr analysis; format: ADME, cell-based; conditions: 786-0, 48 h
[14] = Downregulation of GLUT1 mRNA expression in human SK-RC-28 cells at 21 uM after 48 hrs by RT-PCR analysis; format: functional, cell-based
[15] = molecular target: T1, Endothelial PAS domain-containing protein 1; assay: Inhibition of HIF2alpha in human 786-0 cells assessed as reduction in GLUT1 mRNA expression at 21 uM after 48 hrs by RT-PCR analysis; format: cell-based
[16] = molecular target: T1, Endothelial PAS domain-containing protein 1; assay: Inhibition of HIF2alpha in human 786-0 cells assessed as reduction in VEGFA expression at 21 uM after 48 hrs by RT-PCR analysis; format: cell-based
[17] = molecular target: T1, Endothelial PAS domain-containing protein 1; assay: Inhibition of HIF2alpha in human RCC4 cells coexpressing HIF1alpha assessed as reduction in CCND1 mRNA expression at 21 uM after 48 hrs by RT-PCR analysis; format: cell-based
total protein expression = assay: Inhibition of total protein expression in serum deprived human 786-0 cells at 20 uM after 48 hrs relative to control; format: cell-based; conditions: 786-0 cells
[18] = Downregulation of HIF1alpha mRNA expression in human SK-RC-28 cells at 21 uM after 48 hrs by RT-PCR analysis; format: functional, cell-based
[19] = molecular target: Hypoxia inducible factors; HIF-1-alpha, HIF-2-alpha (Homo sapiens) (UniProt Q16665+Q99814); assay: Inhibition of HIF1alpha/2alpha in human RCC4 cells assessed as reduction in VEGFA mRNA expression at 21 uM after 48 hrs by RT-PCR analysis; format: cell-based
[20] = molecular target: T1, Endothelial PAS domain-containing protein 1; assay: Inhibition of HIF2alpha in human RCC4 cells coexpressing HIF1alpha assessed as reduction in TGFalpha mRNA expression at 21 uM after 48 hrs by RT-PCR analysis; format: cell-based
[21] = molecular target: T1, Endothelial PAS domain-containing protein 1; assay: Inhibition of HIF2alpha in human 786-0 cells expressing truncated HIF1alpha assessed as reduction in luciferase activity after 24 hrs by reporter gene assay; format: cell-based
[22] = Downregulation of actin mRNA expression in human SK-RC-28 cells expressing HIF2alpha at 21 uM after 48 hrs by RT-PCr analysis; format: ADME, cell-based
[23] = molecular target: T1, Endothelial PAS domain-containing protein 1; assay: Inhibition of HIF2alpha in human 786-0 cells assessed as reduction in CCND1 mRNA expression at 21 uM after 48 hrs by RT-PCR analysis; format: cell-based
[24] = Downregulation of actin mRNA expression in human RCC4 cells expressing HIF1alpha and HIF2alpha at 21 uM after 48 hrs by RT-PCr analysis; format: ADME, cell-based; conditions: rcc4, 48 h
[25] = molecular target: Hypoxia-inducible factor 1-alpha (Homo sapiens) (UniProt Q16665); assay: Inhibition of HIF1alpha in human SK-RC-28 cells assessed as reduction in carbonic anhydrase 9 expression at 21 uM after 48 hrs by RT-PCR analysis; format: cell-based
[26] = Cytotoxicity against human SK-RC-28 cells expressing HIF1alpha after 2 days by XTT assay; format: functional, cell-based; conditions: 48 h
[27] = molecular target: Hypoxia-inducible factor 1-alpha (Homo sapiens) (UniProt Q16665); assay: Inhibition of HIF1alpha in human SK-RC-28 cells assessed as reduction in VEGFA expression at 21 uM after 48 hrs by RT-PCR analysis; format: cell-based
[28] = Downregulation of TGFalpha mRNA expression in human SK-RC-28 cells at 21 uM after 48 hrs by RT-PCR analysis; format: functional, cell-based

C1=C/[C@H]2[C@@H]3CCCC[C@H]3C[C@@H]2NCCCN[C@@H]2C[C@@H]3CCCC[C@H]3[C@@H]2/C=C/1 [HALICLONADIAMINE]
Activity [1]: Active
Activity (786-0 [2]): Active
inhibition (786-0 [3]): 50%
inhibition [4]: Active
Activity (786-0 [5]): Active
IC50 (786-0 [6]): 15.1 µM
Activity (786-0 [7]): Active
Activity [8]: Active
Activity [9]: Active
Activity [10]: Active
inhibition [11]: Active
inhibition [12]: Active
Activity (786-0 [13]): Toxic
Activity [14]: Active
inhibition [15]: Active
inhibition [16]: Active
inhibition [17]: Active
inhibition at 48 h, 20 µM (total protein expression): 20%
Activity [18]: Active
inhibition [19]: Active
inhibition [20]: Active
EC50 [21]: 14.8 µM
Activity [22]: Toxic
inhibition [23]: Active
Activity [24]: Toxic
inhibition [25]: Active
IC50 [26]: 16.1 µM
inhibition [27]: Active
Activity [28]: Active
